The results in this text go back to patent publication US20250127801A1, “BRIDGED TRICYCLIC CARBAMOYLPYRIDONE COMPOUNDS AND USES THEREOF” (priority 2023, published 2025).

≈ marks a conversion by molar mass, not a printed value. Read-outs that look alike come from different tables or passages of the source.

The test system of one data set is HIV-1 (IIIB). In words: microbe, parasite or virus in culture. Type of data set: cell-based.
The next data set is described as follows: in vitro. To be noted: human; for CC50 at 5 days: uninfected MT-4 cells.
A further data set is described as follows: physchem. Particulars: 23 °C, thermodynamic from solid; for solubility thermodynamic: fassif; for solubility thermodynamic at 24 h: FaSSIF.
Where [1] appears, read: Human immunodeficiency virus 1, IIIB, MT4, 120 h, read-out: MT4 EC50 (nM).
[2] abbreviates: Human immunodeficiency virus 1, MT4, 120 h, HIV-1 (IIIB) replication in MT-4 cells, 5 days incubation, Cell Titer Glo, read-out: MT4 EC50.

Consider `CC1=NO[C@@]2(CC[C@H](C)N3C[C@H]2n2cc(C(=O)NCc4ccc(F)cc4F)c(=O)c(OCc4ccc(OP(=O)(O)O)cc4)c2C3=O)C1` [Compound 41, 4-((((3′S,5S,7′R)-10′-((2,4-difluorobenzyl)carbamoyl)-3,3′-dimethyl-1′,11′-dioxo-1′,4′,5′,11′-tetrahydro-3′H,4H,7′H-spiro[isoxazole-5,6′-[2,7]methanopyrido[1,2-a][1,4]diazonin]-12′-yl)oxy)methyl)phenyl dihydrogen phosphate], for which the EC50 with HIV-1 (IIIB) (setting [1]) worked out at 0.727 nM. In the data set “in vitro”, this compound yielded a CC50 of 12000 nM. In “physchem”, this compound registered a solubility (thermodynamic) of 5080 µg/mL.
For the compound `COC1=NO[C@@]2(CC[C@H](C)N3C[C@H]2n2cc(C(=O)NCc4ccc(F)cc4F)c(=O)c(OCOC(=O)N(C)c4ncccc4COP(=O)(O)O)c2C3=O)C1` [Compound 3, (((3′S,5S,7′R)-10′-((2,4-difluorobenzyl)carbamoyl)-3-methoxy-3′-methyl-1′,11′-dioxo-1′,4′,5′,11′-tetrahydro-3′H,4H,7′H-spiro[isoxazole-5,6′-[2,7]methanopyrido[1,2-a][1,4]diazonin]-12′-yl)oxy)methylmethyl(3-((phosphonooxy)methyl)pyridin-2-yl)carbamate], the EC50 with HIV-1 (IIIB) (setting [2]) amounted to 2.15 nM. Also, in “in vitro”, the CC50 at 5 days was 12600 nM. The compound further displayed a solubility (thermodynamic) at 24 h in “physchem” of 5410 µg/mL (≈ 6.97 mM).
On the same counts, the results for `CC1=NO[C@@]2(CC[C@H](C)N3C[C@H]2n2cc(C(=O)NCc4ccc(F)cc4F)c(=O)c(OCOC(=O)N(C)c4ncccc4COC(=O)[C@H](C)N)c2C3=O)C1` [Compound 11, (2-((((((3′S,5S,7′R)-10′-((2,4-difluorobenzyl)carbamoyl)-3,3′-dimethyl-1′,11′-dioxo-1′,4′,5′,11′-tetrahydro-3′H,4H,7′H-spiro[isoxazole-5,6′-[2,7]methanopyrido[1,2-a][1,4]diazonin]-12′-yl)oxy)methoxy)carbonyl)(methyl)amino)pyridin-3-yl)methyl L-alaninate] are 1.9 nM, 14500 nM and 2 µg/mL (≈ 0.00266 mM).
`CC1=NO[C@@]2(CC[C@H](C)N3C[C@H]2n2cc(C(=O)NCc4ccc(F)cc4F)c(=O)c(OC(=O)N(C)c4ncccc4CN(CC(=O)OC(C)(C)C)C(=O)OCOP(=O)(O)O)c2C3=O)C1` [Compound 5, tert-butyl N-((2-(((((3′S,5S,7′R)-10′-((2,4-difluorobenzyl)carbamoyl)-3,3′-dimethyl-1′,11′-dioxo-1′,4′,5′,11′-tetrahydro-3′H,4H,7′H-spiro[isoxazole-5,6′-[2,7]methanopyrido[1,2-a][1,4]diazonin]-12′-yl)oxy)carbonyl)(methyl)amino)pyridin-3-yl)methyl)-N-(((phosphonooxy)methoxy)carbonyl)glycinate]: the EC50 in the data set with HIV-1 (IIIB) (setting [1]) amounted to 1.24 nM. Also, in the data set “in vitro”, the CC50 was 10300 nM. The compound further yielded a solubility (thermodynamic) in “physchem” of 4010 µg/mL (≈ 4.37 mM).
Consider `CCCCCCCCCCCCCC(=O)Nc1ccc(CC(=O)Oc2c3n(cc(C(=O)NCc4ccc(F)cc4F)c2=O)[C@@H]2CN(C3=O)[C@@H](C)CC[C@]23CC(OC)=NO3)cc1` [Compound 93, (3′S,5S,7′R)-10′-((2,4-difluorobenzyl)carbamoyl)-3-methoxy-3′-methyl-1′,11′-dioxo-1′,4′,5′,11′-tetrahydro-3′H,4H,7′H-spiro[isoxazole-5,6′-[2,7]methanopyrido[1,2-a][1,4]diazonin]-12′-yl 2-(4-tetradecanamidophenyl)acetate], for which the EC50 with HIV-1 (IIIB) (setting [2]) is 1.36 nM. This compound also had a CC50 at 5 days in the data set “in vitro” not below 50000 nM. This compound also returned a solubility (thermodynamic) at 24 h in the data set “physchem” of 6 µg/mL (≈ 0.00709 mM).
The corresponding values for `CC1=NO[C@@]2(CC[C@H](C)N3C[C@H]2n2cc(C(=O)NCc4ccc(F)cc4F)c(=O)c(OCOC(=O)[C@@H]4[C@H](COP(=O)(O)O)[C@H]4C(=O)O)c2C3=O)C1` [Compound 78, (1R,2R,3R)-2-(((((3′S,5S,7′R)-10′-((2,4-difluorobenzyl)carbamoyl)-3,3′-dimethyl-1′,11′-dioxo-1′,4′,5′,11′-tetrahydro-3′H,4H,7′H-spiro[isoxazole-5,6′-[2,7]methanopyrido[1,2-a][1,4]diazonin]-12′-yl)oxy)methoxy)carbonyl)-3-((phosphonooxy)methyl)cyclopropane-1-carboxylic acid] are 2.2 nM, 8050 nM and 5140 µg/mL (≈ 6.95 mM).
Regarding `CC1=NO[C@@]2(CC[C@H](C)N3C[C@H]2n2cc(C(=O)NCc4ccc(F)cc4F)c(=O)c(OCOC(=O)CC(C)(C)c4c(CC(=O)N[C@@H](CC(=O)O)C(=O)O)cc(C)cc4OP(=O)(O)O)c2C3=O)C1` [Compound 43, (2-(2-(4-((((3′S,5S,7′R)-10′-((2,4-difluorobenzyl)carbamoyl)-3,3′-dimethyl-1′,11′-dioxo-1′,4′,5′,11′-tetrahydro-3′H,4H,7′H-spiro[isoxazole-5,6′-[2,7]methanopyrido[1,2-a][1,4]diazonin]-12′-yl)oxy)methoxy)-2-methyl-4-oxobutan-2-yl)-5-methyl-3-(phosphonooxy)phenyl)acetyl)-L-aspartic acid], the EC50 with HIV-1 (IIIB) (setting [1]) stood at 2.64 nM. This compound also had a CC50 in “in vitro” of 30700 nM. Also, the thermodynamic solubility in “physchem” was determined as 5280 µg/mL (≈ 5.5 mM).
On to `CCCCCCCCCCCCCC(=O)Oc1ccc(C(=O)Oc2c3n(cc(C(=O)NCc4ccc(F)cc4F)c2=O)[C@@H]2CN(C3=O)[C@@H](C)CC[C@]23CC(OC)=NO3)cc1` [Compound 99, (3′S,5S,7′R)-10′-((2,4-difluorobenzyl)carbamoyl)-3-methoxy-3′-methyl-1′,11′-dioxo-1′,4′,5′,11′-tetrahydro-3′H,4H,7′H-spiro[isoxazole-5,6′-[2,7]methanopyrido[1,2-a][1,4]diazonin]-12′-yl 4-(tetradecanoyloxy)benzoate], for which, in the data set on HIV-1 (IIIB) (setting [2]), the EC50 turned out to be 3.03 nM. In “in vitro”, the CC50 at 5 days is not below 50000 nM. In the data set “physchem”, the solubility (thermodynamic) at 24 h stood at 13 µg/mL (≈ 0.0156 mM).
As for `CCCCCCCCCCCCCC(=O)OCc1ccccc1C(=O)Oc1c2n(cc(C(=O)NCc3ccc(F)cc3F)c1=O)[C@@H]1CN(C2=O)[C@@H](C)CC[C@]12CC(C)=NO2` [Compound 92, (3′S,5S,7′R)-10′-((2,4-difluorobenzyl)carbamoyl)-3,3′-dimethyl-1′,11′-dioxo-1′,4′,5′,11′-tetrahydro-3′H,4H,7′H-spiro[isoxazole-5,6′-[2,7]methanopyrido[1,2-a][1,4]diazonin]-12′-yl 2-((tetradecanoyloxy)methyl)benzoate], the EC50 in the data set on HIV-1 (IIIB) (setting [2]) was 4.42 nM. In addition, the CC50 at 5 days in “in vitro” was not below 50000 nM. Also, the solubility (thermodynamic) at 24 h in “physchem” is 3 µg/mL (≈ 0.00361 mM).
As for `CC1=NO[C@@]2(CC[C@H](C)N3C[C@H]2n2cc(C(=O)NCc4ccc(F)cc4F)c(=O)c(OC(=O)N(C)c4ncccc4CN(C)C(=O)OCOP(=O)(O)O)c2C3=O)C1` [Compound 61, (phosphonooxy)methyl ((2-(((((3′S,5S,7′R)-10′-((2,4-difluorobenzyl)carbamoyl)-3,3′-dimethyl-1′,11′-dioxo-1′,4′,5′,11′-tetrahydro-3′H,4H,7′H-spiro[isoxazole-5,6′-[2,7]methanopyrido[1,2-a][1,4]diazonin]-12′-yl)oxy)carbonyl)(methyl)amino)pyridin-3-yl)methyl)(methyl)carbamate], the EC50 with HIV-1 (IIIB) (setting [1]) is 1.39 nM. In “in vitro”, this compound showed a CC50 of 15200 nM. Moreover, the solubility (thermodynamic) in “physchem” was determined as 4140 µg/mL (≈ 5.07 mM).
Regarding `CCCCCCCCCCCCCC(=O)Nc1ccc(CC(=O)Oc2c3n(cc(C(=O)NCc4ccc(F)cc4F)c2=O)[C@@H]2CN(C3=O)[C@@H](C)CC[C@]23CC(C)=NO3)cc1` [Compound 94, (3′S,5S,7′R)-10′-((2,4-difluorobenzyl)carbamoyl)-3,3′-dimethyl-1′,11′-dioxo-1′,4′,5′,11′-tetrahydro-3′H,4H,7′H-spiro[isoxazole-5,6′-[2,7]methanopyrido[1,2-a][1,4]diazonin]-12′-yl 2-(4-tetradecanamidophenyl)acetate], the EC50 in the data set on HIV-1 (IIIB) (setting [2]) turned out to be 3.2 nM. Besides, the CC50 at 5 days in the data set “in vitro” is not below 50000 nM. Also, in the data set “physchem”, the solubility (thermodynamic) at 24 h worked out at 19 µg/mL (≈ 0.0229 mM).
The corresponding values for `CC1=NO[C@@]2(CC[C@H](C)N3C[C@H]2n2cc(C(=O)NCc4ccc(F)cc4F)c(=O)c(OCOC(=O)OC[C@@H]4C[C@@H]4COP(=O)(O)O)c2C3=O)C1` [Compound 49, (((3′S,5S,7′R)-10′-((2,4-difluorobenzyl)carbamoyl)-3,3′-dimethyl-1′,11′-dioxo-1′,4′,5′,11′-tetrahydro-3′H,4H,7′H-spiro[isoxazole-5,6′-[2,7]methanopyrido[1,2-a][1,4]diazonin]-12′-yl)oxy)methyl (((1R,2S)-2-((phosphonooxy)methyl)cyclopropyl)methyl) carbonate] are 4.17 nM, 23300 nM and 4890 µg/mL (≈ 6.75 mM).
The corresponding values for `CC1=NO[C@@]2(CC[C@H](C)N3C[C@H]2n2cc(C(=O)NCc4ccc(F)cc4F)c(=O)c(OCOC(=O)N4CCOC[C@H]4COP(=O)(O)O)c2C3=O)C1` [Compound 64, (((3′S,5S,7′R)-10′-((2,4-difluorobenzyl)carbamoyl)-3,3′-dimethyl-1′,11′-dioxo-1′,4′,5′,11′-tetrahydro-3′H,4H,7′H-spiro[isoxazole-5,6′-[2,7]methanopyrido[1,2-a][1,4]diazonin]-12′-yl)oxy)methyl (3S)-3-((phosphonooxy)methyl)morpholine-4-carboxylate] are 21.4 nM, not below 50000 nM and 4840 µg/mL (≈ 6.54 mM).
`CC1=NO[C@@]2(CC[C@H](C)N3C[C@H]2n2cc(C(=O)NCc4ccc(F)cc4F)c(=O)c(OCOC(=O)OCc4ccc(OP(=O)(O)O)cc4)c2C3=O)C1` [Compound 19, (((3′S,5S,7′R)-10′-((2,4-difluorobenzyl)carbamoyl)-3,3′-dimethyl-1′,11′-dioxo-1′,4′,5′,11′-tetrahydro-3′H,4H,7′H-spiro[isoxazole-5,6′-[2,7]methanopyrido[1,2-a][1,4]diazonin]-12′-yl)oxy)methyl (4-(phosphonooxy)benzyl) carbonate]: the EC50 in the data set on HIV-1 (IIIB) (setting [1]) is 0.71 nM. This compound also had a CC50 in the data set “in vitro” of 10900 nM. In “physchem”, this compound gave a solubility (thermodynamic) of 390 µg/mL (≈ 0.522 mM).

As usually defined, the EC50 is the concentration needed to bring the measured effect to its halfway point. One may read the solubility (thermodynamic) as the concentration in solution at equilibrium with solid.
